Measurements taken from patent US7176224B2, “Oxazolyl-aryloxyacetic acid derivatives and their use as PPAR agonists” (Eli Lilly and Company, priority 2000, dated 2007).
One block for each molecule: values may come before it.

Experiments:
[1] = tested on: Hu apoAI transgenic mice; assay: Evaluation of triglyceride and cholesterol levels in hu apoAI transgenic mice; type: in vivo
Protocol: Five to six week old male mice, transgenic for human apoAI [C57B1/6-tgn(apoa1) 1rub, Jackson Laboratory, Bar Harbor, Me.] were housed five per cage (10″×20″8″ with aspen chip bedding) with food (Purina 5001) and water available at all times. After an acclimation period of 2 weeks, animals were individually identified by ear notches, weighed, and assigned to groups based on body weight. Beginning the following morning, mice were dosed daily by oral gavage for 7 days using a 20 gauge, 1½″ curved disposable feeding needle (Popper & Sons). Treatments were test compounds (30 mg/kg), a positive control (fenofibrate, 100 mg/kg) or vehicle [1% carboxymethylcellulose (w/v)/0.25% Tween80 (w/v); 0.2 ml/mouse]. Prior to termination on day 7, mice were weighed and dosed. Three hours after dosing, animals were anesthetized by inhalation of isoflurane (2–4%; Abbott Laboratories, Chicago, Ill.) and blood obtained via cardiac puncture (0.7–1.0 ml). Whole blood was transferred to serum separator tubes (Vacutainer SST), chilled on ice, and permitted to clot. Serum was obtained after centrifugation at 4° C. and frozen until analysis for triglycerides, total cholesterol, compound levels, and serum lipoprotein profile by fast protein liquid chromatography (FPLC) coupled to an inline detection system. After sacrifice by cervical dislocation, the liver, heart and epididymal fat pads were excised and weighed.
The animals dosed with vehicle had average triglycerides values of 60–80 mg/dl, which were reduced by the positive control fenofibrate (33–58 mg/dl with a mean reduction of 37%). The animals dosed with vehicle had average total serum cholesterol values of 140–180 mg/dl, which were increased by fenofibrate (190–280 mg/dl, with a mean elevation of 41%). […] increased the amount of HDLc (68–96 v-sec with a mean percent increase of 48%).
Glucose was measured colorimetrically using commercially purchased reagents (Sigma #315-500). According to the manufacturers, the procedures were modified from published work (McGowan, M. W., Artiss, J. D., Strandbergh, D. R. & Zak, B. Clin Chem, 20:470–5 (1974) and Keston, A. Specific colorimetric enzymatic analytical reagents for glucose. Abstract of papers 129th Meeting ACS, 31C (1956).); and depend on the release of a mole of hydrogen peroxide for each mole of analyte, coupled with a color reaction first described by Trinder (Trinder, P. Determination of glucose in blood using glucose oxidase with an alternative oxygen acceptor. Ann Clin Biochem, 6:24 (1969)). The absorbance of the dye produced is linearly related to the analyte in the sample. The assays were further modified in our laboratory for use in a 96 well format. Standards (Sigma #339-11, Sigma #16-11, and Sigma #CC0534 for glucose, triglycerides and total cholesterol, respectively), quality control plasma (Sigma # A2034), and samples (2 or 5 μl/well) were measured in duplicate using 200 μl of reagent. An additional aliquot of sample, pipetted to a third well and diluted in 200 μl water, provided a blank for each specimen. Plates were incubated at room temperature (18, 15, and 10 minutes for glucose, triglycerides and total cholesterol, respectively) on a plate shaker (DPC Micormix 5) and absorbance read at 500 nm (glucose and total cholesterol) or 540 nm (triglycerides) on a plate reader (Wallac Victor 1420). Sample absorbances were compared to a standard curve (100–800, 10–500, and 100–400 mg/dl for glucose, triglycerides and total cholesterol, respectively). Values for the quality control sample were always within the expected range and the coefficient of variation for samples was below 10%. All samples from an experiment were assayed at the same time to minimize inter-assay variability.
Serum lipoproteins were separated and cholesterol quantitated with an in-line detection system. Sample was applied to a Superose® 6 HR 10/30 size exclusion column (Amersham Pharmacia Biotech) and eluted with phosphate buffered saline-EDTA at 0.5 ml/min. […]

[2] = tested on: huPPARγ; assay: Cotransfection assay in CV-1 cells, luciferase reporter; type: cell-based, human; settings: GAL4 chimeric system, relative to agonist reference molecule
Protocol: […] binding (ABCD binding) was carried out using SPA technology with PPAR receptors. […] Cotransfection assays were carried out in CV-1 cells. The reporter plasmid contained an acylCoA oxidase (AOX) PPRE and TK promoter upstream of the luciferase reporter cDNA. Appropriate PPARs and RXRα were constitutively expressed using plasmids containing the CMV promoter. […] In order to eliminate such interference, a GAL4 chimeric system was used in which the DNA binding domain of the transfected PPAR was replaced by that of GAL4, and the GAL4 response element was utilized in place of the AOX PPRE. […] Efficacies were determined by computer fit to a concentration-response curve, or in some cases at a single high concentration of agonist (10 μM). For binding or cotransfection studies with receptors other than PPARs, similar assays were carried out using appropriate ligands, receptors, reporter constructs, etc., for that particular receptor.
(§1) These studies were carried out to evaluate the ability of compounds of the invention to bind to and/or activate various nuclear transcription factors, particularly huPPARα (“hu” indicates “human”) and huPPARγ. These studies provide in vitro data concerning efficacy and selectivity of compounds of the invention. Furthermore, binding and cotransfection data for compounds of the invention were compared with corresponding data for marketed compounds that act on either huPPARα or huPPARγ.

[3] = molecular target: T1, huPPARγ (Homo sapiens, UniProt P37231); assay: DNA-dependent binding (ABCD binding), SPA, radioligand displacement; settings: tritium-labeled PPARγ agonist radioligand
T1 sequence (P37231 1-505): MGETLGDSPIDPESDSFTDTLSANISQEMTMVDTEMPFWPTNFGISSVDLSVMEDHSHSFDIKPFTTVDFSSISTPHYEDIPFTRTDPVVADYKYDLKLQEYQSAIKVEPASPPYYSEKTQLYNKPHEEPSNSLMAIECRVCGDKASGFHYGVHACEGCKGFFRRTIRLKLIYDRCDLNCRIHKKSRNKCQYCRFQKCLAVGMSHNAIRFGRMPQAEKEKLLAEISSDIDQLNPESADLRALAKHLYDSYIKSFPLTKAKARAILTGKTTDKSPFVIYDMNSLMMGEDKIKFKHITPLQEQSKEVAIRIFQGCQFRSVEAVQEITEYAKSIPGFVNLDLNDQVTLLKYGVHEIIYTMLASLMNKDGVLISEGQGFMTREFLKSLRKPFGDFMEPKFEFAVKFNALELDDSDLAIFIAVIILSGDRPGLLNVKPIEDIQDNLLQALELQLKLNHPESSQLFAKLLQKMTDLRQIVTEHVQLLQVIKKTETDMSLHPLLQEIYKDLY
T1 sequence (P19793 1-462 partner): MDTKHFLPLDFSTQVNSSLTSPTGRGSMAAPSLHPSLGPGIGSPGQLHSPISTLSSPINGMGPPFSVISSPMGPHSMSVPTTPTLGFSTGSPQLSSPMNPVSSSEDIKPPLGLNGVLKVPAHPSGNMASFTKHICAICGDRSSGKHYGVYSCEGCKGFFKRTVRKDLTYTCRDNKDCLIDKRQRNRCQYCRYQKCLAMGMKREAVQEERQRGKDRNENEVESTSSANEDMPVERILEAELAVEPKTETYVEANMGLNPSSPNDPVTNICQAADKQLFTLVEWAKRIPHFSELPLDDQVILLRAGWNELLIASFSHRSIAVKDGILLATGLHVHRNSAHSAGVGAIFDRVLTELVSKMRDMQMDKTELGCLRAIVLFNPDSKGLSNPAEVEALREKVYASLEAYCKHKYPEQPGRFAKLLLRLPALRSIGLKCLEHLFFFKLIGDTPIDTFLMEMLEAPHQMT
Protocol: (§2) […] binding (ABCD binding) was carried out using SPA technology with PPAR receptors. Tritium-labeled PPARα and PPARγ agonists were used as radioligands for generating displacement curves and IC50 values with compounds of the invention. Cotransfection assays were carried out in CV-1 cells. The reporter plasmid contained an acylCoA oxidase (AOX) PPRE and TK promoter upstream of the luciferase reporter cDNA. Appropriate PPARs and RXRα were constitutively expressed using plasmids containing the CMV promoter. […] In order to eliminate such interference, a GAL4 chimeric system was used in which the DNA binding domain of the transfected PPAR was replaced by that of GAL4, and the GAL4 response element was utilized in place of the AOX PPRE. Cotransfection efficacy was determined relative to PPARα agonist and […] reference molecules. Efficacies were determined by computer fit to a concentration-response curve, or in some cases at a single high concentration of agonist (10 μM). For binding or cotransfection studies with receptors other than PPARs, similar assays were carried out using appropriate ligands, receptors, reporter constructs, etc., for that particular receptor.
as §1

[4] = molecular target: T2, huPPARα (Homo sapiens, UniProt Q07869); assay: as above; settings: tritium-labeled PPARα agonist radioligand
T2 sequence (Q07869 1-468): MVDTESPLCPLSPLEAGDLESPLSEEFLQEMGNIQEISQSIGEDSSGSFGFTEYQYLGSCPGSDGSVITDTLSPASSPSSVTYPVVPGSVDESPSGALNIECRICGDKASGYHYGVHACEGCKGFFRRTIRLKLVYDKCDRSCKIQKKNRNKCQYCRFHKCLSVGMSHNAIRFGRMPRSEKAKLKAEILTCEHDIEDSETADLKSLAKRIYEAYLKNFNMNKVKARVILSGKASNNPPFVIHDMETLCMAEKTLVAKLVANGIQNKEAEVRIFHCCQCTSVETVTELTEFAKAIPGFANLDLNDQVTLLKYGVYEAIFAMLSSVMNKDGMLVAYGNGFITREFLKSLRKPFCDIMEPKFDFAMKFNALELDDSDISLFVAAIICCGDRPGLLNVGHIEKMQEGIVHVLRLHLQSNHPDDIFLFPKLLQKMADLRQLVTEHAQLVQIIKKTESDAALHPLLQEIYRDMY
T2 sequence (P19793 1-462 partner): T1 sequence (P19793 1-462 partner)
Protocol: as §2, §1

[5] = tested on: huPPARα; assay: Cotransfection assay in CV-1 cells, luciferase reporter; type: cell-based, human; settings: GAL4 chimeric system, relative to PPARα agonist reference molecule
Protocol: […] binding (ABCD binding) was carried out using SPA technology with PPAR receptors. Tritium-labeled PPARα and PPARγ agonists were used as radioligands for generating displacement curves and IC50 values with compounds of the invention. Cotransfection assays were carried out in CV-1 cells. The reporter plasmid contained an acylCoA oxidase (AOX) PPRE and TK promoter upstream of the luciferase reporter cDNA. Appropriate PPARs and RXRα were constitutively expressed using plasmids containing the CMV promoter. For PPARα and […], interference by endogenous […] in CV-1 cells was an issue. In order to eliminate such interference, a GAL4 chimeric system was used in which the DNA binding domain of the transfected PPAR was replaced by that of GAL4, and the GAL4 response element was utilized in place of the AOX PPRE. Cotransfection efficacy was determined relative to PPARα agonist and […] reference molecules. Efficacies were determined by computer fit to a concentration-response curve, or in some cases at a single high concentration of agonist (10 μM). For binding or cotransfection studies with receptors other than PPARs, similar assays were carried out using appropriate ligands, receptors, reporter constructs, etc., for that particular receptor.
as §1

[6] = 100 mg/kg oral gavage daily for 7 days, versus vehicle

SMILES: CC(C)OC(=O)C(C)(C)Oc1ccc(C(=O)c2ccc(Cl)cc2)cc1 [fenofibrate]
high density lipoprotein cholesterol (HDLc) peak area ([1]; 100 mg/kg oral gavage daily for 7 days, pooled sera, FPLC, vehicle 47 to 62 v-sec): 68–96 v-sec
average triglycerides values ([1]; 100 mg/kg oral gavage daily for 7 days, serum, vehicle 60–80 mg/dl): 33 to 58 mg/dL
average total serum cholesterol values ([1]; 100 mg/kg oral gavage daily for 7 days, vehicle 140–180 mg/dl): 190 to 280 mg/dL
mean elevation of total serum cholesterol [1, 6]: 41%
mean percent increase of HDLc [1, 6]: 48%
mean reduction of triglycerides [1, 6]: 37%

SMILES: Cc1oc(-c2cccc(-c3ccsc3)c2)nc1CCOc1ccc(CC(C)(Oc2ccc(C(C)(C)C)cc2)C(=O)O)cc1 (centres unmarked) [Example 19, 2-Methyl-3-(4-{2-[5-methyl-2-(3-thiophen-3-yl-phenyl)-oxazol-4-yl]-ethoxy}-phenyl)-2-(4-tert-butylphenoxy)-propionic acid]
% HDLc Increase ([1]; 30 mg/kg oral gavage daily for 7 days, serum HDLc FPLC area under the curve, over mice receiving vehicle): 85.3%

IC50 [3]: 0.099 µM
IC50 [4]: 0.613 µM
SMILES: COc1cccc(OC(C)(Cc2ccc(OCCc3nc(-c4ccc(-c5ccccc5)cc4)oc3C)cc2)C(=O)O)c1 (centres unmarked) [Example 56, 3-{4-[2-(2-Biphenyl-4-yl-5-methyl-oxazol-4-yl)-ethoxy]-phenyl}-2-(3-methoxy-phenoxy)-2-methyl-propionic acid]
huPPARγ CTF Efficacy [2]: 88%
huPPARα CTF Efficacy [5]: 70%
